The NIST ThermoML archive (doi:10.1016/j.jct.2009.01.014)
Where “and” joins values, the source holds several entries; their conditions need not be identical. Equal values may be shown once. Numbers after ± are expanded uncertainties.

Test: molar heat capacity at constant pressure
Conditions: 101.33 kPa, Crystal 1, Vacuum adiabatic calorimetry

[Al+3].[Al+3].[Co+2].[O-2].[O-2].[O-2].[O-2] [aluminium cobalt oxide]
Conditions	molar heat capacity at constant pressure
47.17 K	7.42 ± 0.15 J/K/mol
47.58 K	7.59 ± 0.16 J/K/mol
48.91 K	7.98 ± 0.16 J/K/mol
50 K	8.31 ± 0.17 J/K/mol
50.03 K	8.32 ± 0.05 J/K/mol
50.67 K	8.52 ± 0.05 J/K/mol
52.44 K	9.07 ± 0.06 J/K/mol
52.51 K	9.11 ± 0.06 J/K/mol
54.22 K	9.63 ± 0.06 J/K/mol
55 K	9.96 ± 0.06 J/K/mol
55.03 K	9.97 ± 0.06 J/K/mol
56.02 K	10.33 ± 0.06 J/K/mol
57.57 K	10.87 ± 0.06 J/K/mol
57.82 K	10.96 ± 0.06 J/K/mol
59.64 K	11.67 ± 0.07 J/K/mol
60 K	11.79 ± 0.07 J/K/mol
60.15 K	11.85 ± 0.07 J/K/mol
61.46 K	12.35 ± 0.07 J/K/mol
62.75 K	12.88 ± 0.07 J/K/mol
63.3 K	13.11 ± 0.07 J/K/mol
65 K	13.79 ± 0.07 J/K/mol
65.14 K	13.85 ± 0.07 J/K/mol
65.38 K	13.94 ± 0.07 J/K/mol
66.99 K	14.6 ± 0.08 J/K/mol
68.03 K	15.06 ± 0.08 J/K/mol
68.85 K	15.41 ± 0.08 J/K/mol
70 K	15.92 ± 0.08 J/K/mol
70.7 K	16.23 ± 0.08 J/K/mol
70.71 K	16.22 ± 0.08 J/K/mol
72.59 K	17.07 ± 0.09 J/K/mol
73.39 K	17.44 ± 0.09 J/K/mol
74.46 K	17.93 ± 0.09 J/K/mol
75 K	18.18 ± 0.09 J/K/mol
76.1 K	18.69 ± 0.09 J/K/mol
76.35 K	18.81 ± 0.09 J/K/mol
78.23 K	19.67 ± 0.1 J/K/mol
78.83 K	19.98 ± 0.1 J/K/mol
80 K	20.58 ± 0.83 J/K/mol
80.13 K	20.6 ± 0.1 J/K/mol
81.57 K	21.31 ± 0.1 J/K/mol
82.03 K	21.53 ± 0.1 J/K/mol
83.93 K	22.47 ± 0.11 J/K/mol
84.33 K	22.66 ± 0.11 J/K/mol
85 K	23 ± 0.11 J/K/mol
85.84 K	23.42 ± 0.11 J/K/mol
86.76 K	23.89 ± 0.11 J/K/mol
87.1 K	24.07 ± 0.12 J/K/mol
87.75 K	24.35 ± 0.12 J/K/mol
89.66 K	25.35 ± 0.12 J/K/mol
89.88 K	25.48 ± 0.12 J/K/mol
90 K	25.54 ± 0.19 J/K/mol
90.38 K	25.72 ± 0.19 J/K/mol
91.58 K	26.35 ± 0.19 J/K/mol
92.68 K	26.93 ± 0.19 J/K/mol
93.5 K	27.35 ± 0.19 J/K/mol
94.03 K	27.61 ± 0.2 J/K/mol
95 K	28.14 ± 0.2 J/K/mol
95.42 K	28.36 ± 0.2 J/K/mol
95.49 K	28.4 ± 0.2 J/K/mol
97.35 K	29.35 ± 0.2 J/K/mol
97.7 K	29.56 ± 0.2 J/K/mol
98.31 K	29.91 ± 0.2 J/K/mol
99.28 K	30.41 ± 0.2 J/K/mol
100 K	30.76 ± 0.2 J/K/mol
101.14 K	31.29 ± 0.21 J/K/mol
101.4 K	31.39 ± 0.21 J/K/mol
105 K	33.58 ± 0.21 J/K/mol
105.11 K	33.64 ± 0.21 J/K/mol
108.84 K	35.84 ± 0.22 J/K/mol
110 K	36.47 ± 0.22 J/K/mol
112.59 K	37.85 ± 0.23 J/K/mol
116.35 K	39.89 ± 0.23 J/K/mol
118.19 K	40.87 ± 0.24 J/K/mol
120 K	41.53 ± 0.24 J/K/mol
120.13 K	41.61 ± 0.24 J/K/mol
121.04 K	42.24 ± 0.24 J/K/mol
123.91 K	44.18 ± 0.25 J/K/mol and 44.16 ± 0.25 J/K/mol
126.79 K	45.8 ± 0.25 J/K/mol
127.71 K	46.35 ± 0.25 J/K/mol
129.67 K	47.46 ± 0.26 J/K/mol
130 K	47.65 ± 0.26 J/K/mol
131.52 K	48.53 ± 0.26 J/K/mol
132.55 K	49.08 ± 0.26 J/K/mol
135.33 K	50.7 ± 0.27 J/K/mol
135.44 K	50.72 ± 0.27 J/K/mol
138.34 K	52.33 ± 0.28 J/K/mol
139.16 K	52.77 ± 0.28 J/K/mol
140 K	53.26 ± 0.28 J/K/mol
141.23 K	53.98 ± 0.28 J/K/mol
142.99 K	55.02 ± 0.28 J/K/mol
144.14 K	55.61 ± 0.29 J/K/mol
